Experimental data as given in ChEMBL document CHEMBL1201862, “PubChem BioAssay data set” (2004).
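Values below derive from 48-hour exposures of cells grown in 96-well plates, with endpoints linearly interpolated between the two concentrations bracketing the appropriate inhibition level. The concentration for 50% growth inhibition is given as GI50.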 The source made the active and inactive calls. Rule as the data show it: active = GI50 up to about 1.1 µM and inactive = higher.

Columns and labels:
Experiment in all cases: DTP human tumour cell line panel, 48 h
HOP-92 = tested on: HOP-92
A549 = tested on: A549
SF-268 = tested on: SF-268
SK-MEL-5 = tested on: SK-MEL-5
RXF 393 = tested on: RXF 393
UO-31 = tested on: UO-31
786-0 = tested on: 786-0
SF-539 = tested on: SF-539
SR = tested on: SR
MDA-MB-231 = tested on: MDA-MB-231
IGROV-1 = tested on: IGROV-1
Hs-578T = tested on: Hs-578T
UACC-62 = tested on: UACC-62
NCI-H226 = tested on: NCI-H226
MOLT-4 = tested on: MOLT-4
CCRF-CEM = tested on: CCRF-CEM
KM12 = tested on: KM12
U-251 = tested on: U-251
T47D = tested on: T47D
OVCAR-3 = tested on: OVCAR-3
MDA-MB-435 = tested on: MDA-MB-435
MDA-N = tested on: MDA-N
EKVX = tested on: EKVX
NCI-H23 = tested on: NCI-H23
HCT-15 = tested on: HCT-15
HOP-62 = tested on: HOP-62
HT-29 = tested on: HT-29
SK-MEL-28 = tested on: SK-MEL-28
SK-OV-3 = tested on: SK-OV-3
HCT-116 = tested on: HCT-116
DU-145 = tested on: DU-145
OVCAR-8 = tested on: OVCAR-8
ACHN = tested on: ACHN
OVCAR-5 = tested on: OVCAR-5
SN12C = tested on: SN12C
HL-60 = tested on: HL-60
K562 = tested on: K562
SF-295 = tested on: SF-295
SW-620 = tested on: SW-620
NCI/ADR-RES = tested on: NCI/ADR-RES
PC-3 = tested on: PC-3
BT-549 = tested on: BT-549
HCC 2998 = tested on: HCC 2998
Malme-3M = tested on: Malme-3M
M14 = tested on: M14
NCI-H460 = tested on: NCI-H460
MCF7 = tested on: MCF7
SNB-19 = tested on: SNB-19
A498 = tested on: A498
SK-MEL-2 = tested on: SK-MEL-2
TK-10 = tested on: TK-10
NCI-H522 = tested on: NCI-H522
SNB-75 = tested on: SNB-75
RPMI-8226 = tested on: RPMI-8226
OVCAR-4 = tested on: OVCAR-4
UACC-257 = tested on: UACC-257
COLO 205 = tested on: COLO 205
LOX IMVI = tested on: LOX IMVI
CAKI-1 = tested on: CAKI-1

With CC12CP(=O)(c3ccccc3)CC1c1ccccc1C2c1ccccc1 (configuration not stated) the GI50 (HOP-92) was 22.1 µM (inactive), the GI50 (A549) was 16.4 µM (inactive) and the GI50 (SF-268) was 26.1 µM (inactive). The GI50 (SK-MEL-5) was 19.1 µM (inactive), the GI50 (RXF 393) was 20.8 µM (inactive) and the GI50 (UO-31) was 16.7 µM (inactive). The GI50 (786-0) was 17.3 µM (inactive), the GI50 (SF-539) was 17.8 µM (inactive) and the GI50 (SR) was 14.3 µM (inactive). For the same compound, the GI50 (MDA-MB-231) was 18.5 µM (inactive), the GI50 (IGROV-1) was 3.44 µM (inactive) and the GI50 (Hs-578T) was 26.3 µM (inactive). For the same compound, the GI50 (UACC-62) was 29.2 µM (inactive), the GI50 (NCI-H226) was 19.7 µM (inactive) and the GI50 (MOLT-4) was 11.4 µM (inactive). For the same compound, the GI50 (CCRF-CEM) was 3.04 µM (inactive), the GI50 (KM12) was 17.3 µM (inactive) and the GI50 (U-251) was 16.5 µM (inactive). The GI50 (T47D) was 16.4 µM (inactive), the GI50 (OVCAR-3) was 16.7 µM (inactive) and the GI50 (MDA-MB-435) was 15.2 µM (inactive). For the same compound, the GI50 (MDA-N) was 16.6 µM (inactive), the GI50 (EKVX) was 17.9 µM (inactive) and the GI50 (NCI-H23) was 20.7 µM (inactive). The GI50 (HCT-15) was 13.7 µM, the GI50 (HOP-62) was 18.5 µM (inactive) and the GI50 (HT-29) was 15.5 µM (inactive). For the same compound, the GI50 (SK-MEL-28) was 29.4 µM (inactive), the GI50 (SK-OV-3) was 40.1 µM (inactive) and the GI50 (HCT-116) was 14.3 µM (inactive). For the same compound, the GI50 (DU-145) was 21 µM (inactive), the GI50 (OVCAR-8) was 15.2 µM (inactive) and the GI50 (ACHN) was 18 µM (inactive). The GI50 (OVCAR-5) was 30.9 µM (inactive), the GI50 (SN12C) was 17.9 µM (inactive) and the GI50 (HL-60) was 7.52 µM (inactive). The GI50 (K562) was 5.9 µM (inactive), the GI50 (SF-295) was 15.6 µM (inactive) and the GI50 (SW-620) was 17 µM (inactive). The GI50 (NCI/ADR-RES) was 14.2 µM (inactive), the GI50 (PC-3) was 12.4 µM (inactive) and the GI50 (BT-549) was > 10 µM (inactive). For the same compound, the GI50 (HCC 2998) was 17.7 µM (inactive), the GI50 (Malme-3M) was 15.6 µM (inactive) and the GI50 (M14) was 17.5 µM (inactive). For the same compound, the GI50 (NCI-H460) was 14.5 µM (inactive), the GI50 (MCF7) was > 100 µM (inactive) and the GI50 (SNB-19) was 48 µM (inactive). The GI50 (A498) was 27.7 µM (inactive), the GI50 (SK-MEL-2) was 28 µM (inactive) and the GI50 (TK-10) was 62.2 µM (inactive).
For Cc1csc(NCc2ccc(Cl)cc2)n1, the GI50 (HOP-92) was 23.4 µM (inactive), the GI50 (A549) was 40.5 µM (inactive) and the GI50 (SF-268) was 51.2 µM (inactive). For the same compound, the GI50 (SK-MEL-5) was 23.7 µM (inactive), the GI50 (RXF 393) was 25.4 µM (inactive) and the GI50 (UO-31) was 37.4 µM (inactive). The GI50 (NCI-H522) was 28.9 µM (inactive), the GI50 (786-0) was 61.4 µM (inactive) and the GI50 (SF-539) was > 100 µM (inactive). For the same compound, the GI50 (SR) was 36.1 µM (inactive), the GI50 (MDA-MB-231) was 40.6 µM (inactive) and the GI50 (IGROV-1) was 45.9 µM (inactive). The GI50 (SNB-75) was 36.3 µM (inactive), the GI50 (Hs-578T) was 54.7 µM (inactive) and the GI50 (RPMI-8226) was 44 µM (inactive). The GI50 (NCI-H226) was 33.8 µM (inactive), the GI50 (MOLT-4) was 35.9 µM (inactive) and the GI50 (CCRF-CEM) was 39.1 µM (inactive). For the same compound, the GI50 (OVCAR-4) was 37 µM (inactive), the GI50 (KM12) was 56.1 µM (inactive) and the GI50 (U-251) was 41.3 µM (inactive). The GI50 (UACC-257) was 67.8 µM (inactive), the GI50 (T47D) was 28.9 µM (inactive) and the GI50 (OVCAR-3) was 44.7 µM (inactive). For the same compound, the GI50 (MDA-MB-435) was 52.2 µM (inactive), the GI50 (MDA-N) was 57.7 µM (inactive) and the GI50 (EKVX) was 32.7 µM (inactive). For the same compound, the GI50 (NCI-H23) was 32.3 µM (inactive), the GI50 (HCT-15) was 39.1 µM and the GI50 (HOP-62) was > 100 µM (inactive). For the same compound, the GI50 (HT-29) was 47.1 µM (inactive), the GI50 (SK-MEL-28) was 85.1 µM (inactive) and the GI50 (SK-OV-3) was > 100 µM (inactive). For the same compound, the GI50 (HCT-116) was 38.6 µM (inactive), the GI50 (DU-145) was > 100 µM (inactive) and the GI50 (OVCAR-8) was 56.2 µM (inactive). For the same compound, the GI50 (ACHN) was 70.1 µM (inactive), the GI50 (OVCAR-5) was > 100 µM (inactive) and the GI50 (COLO 205) was 24.1 µM (inactive). For the same compound, the GI50 (LOX IMVI) was 99.3 µM (inactive), the GI50 (SN12C) was 81.5 µM (inactive) and the GI50 (HL-60) was 33.1 µM (inactive). For the same compound, the GI50 (K562) was 45.7 µM (inactive), the GI50 (CAKI-1) was 60.5 µM (inactive) and the GI50 (SF-295) was 39.8 µM (inactive). For the same compound, the GI50 (SW-620) was 69.7 µM (inactive), the GI50 (NCI/ADR-RES) was 46.6 µM (inactive) and the GI50 (PC-3) was 37.8 µM (inactive). The GI50 (BT-549) was 62.7 µM (inactive), the GI50 (Malme-3M) was 45.1 µM (inactive) and the GI50 (M14) was 45.7 µM (inactive). For the same compound, the GI50 (MCF7) was 43.3 µM (inactive), the GI50 (SNB-19) was 75.2 µM (inactive) and the GI50 (A498) was 40.1 µM (inactive). For the same compound, the GI50 (SK-MEL-2) was 50.9 µM (inactive) and the GI50 (TK-10) was > 100 µM (inactive).
